Experimental data reported in patent US9951372B2, “Compounds and methods for assaying redox state of metabolically active cells and methods for measuring NAD(P)/NAD(P)H” (PROMEGA CORPORATION, priority 2011, dated 2018).
Like-named read-outs stand apart in the source and are kept apart here.

Columns and labels:
[1] = test system: Clostridium diaphorase; assay: Fluorescent NADH detection assay, Clostridium diaphorase; format: biochemical; conditions: for FLUs: 1 u/ml Clostridium diaphorase; for Fluorescence time course, Clostridium: 10 uM NADH
Procedure: Each fluorescent substrate (PBI-4412, 4413, 4440, and 4441) was incubated at 920 μM with 0 μM or 10 μM NADH (Sigma) or a titration of NADH (Table 8) and 1 u/ml rat diaphorase (Sigma) or 1 u/ml Clostridium diaphorase (Sigma) in a volume of 100 μl in 50 mM Tris pH 7.5. Single reactions were prepared in the wells of a 96-well black plate at room temperature. Fluorescence was monitored over the course of two hours at excitation and emission wavelengths of 485 and 527, respectively, using a fluorescence plate reader. […] Table 7 and FIGS. 24a-b show the reaction time course with each substrate with 10 uM NADH. Table 8 and FIG. 25 show the NADH titration at 60 minutes with PBI-4440 and 4412 with rat diaphorase.

[2] = test system: HeLa cells; assay: Fluorescent imaging of live cells; format: cell-based; conditions: 10 μM substrate
Procedure: HeLa cells were plated at 40,000 cell/well into wells of an 8-well chambered coverslip and incubated at 37° C.+5% CO2. The media (DMEM) was replaced with warm complete media (with 10% FBS) containing 10 μM PBI-4412, 4413, 4440 or 4441. Cells were then transferred to a confocal microscope for imaging using 10% λ488 nm laser power (4412, 4413, and 4441) or 5% laser power (4440). All images (FIGS. 6a-d) are at 30× magnification.

[3] = target: T1, rat diaphorase (Rattus norvegicus, UniProt P05982); format: biochemical; conditions: for FLUs: 1 u/ml rat diaphorase; for Fluorescence time course, Rat: 10 uM NADH
T1 construct: purchased Sigma
T1 sequence (P05982 2-274 limits assumed): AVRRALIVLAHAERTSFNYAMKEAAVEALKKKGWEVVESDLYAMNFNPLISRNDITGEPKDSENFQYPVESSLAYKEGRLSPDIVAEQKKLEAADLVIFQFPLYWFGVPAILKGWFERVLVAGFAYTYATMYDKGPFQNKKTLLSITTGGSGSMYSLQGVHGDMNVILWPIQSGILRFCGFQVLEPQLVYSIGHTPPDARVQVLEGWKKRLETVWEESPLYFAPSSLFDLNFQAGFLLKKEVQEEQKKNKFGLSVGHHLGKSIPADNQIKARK

[4] = test system: Jurkat cells; assay: Measuring metabolically active cells with quinone coelenterazine derivatives; format: cell-based, human; conditions: Jurkat cell dilutions; 30 minute incubation; Oplophorus luciferase detection reagent
Procedure: Two-fold serial dilutions of Jurkat cells were prepared in PBS, and 50 μl per well transferred to wells in 96-well plates. Compound PBI 4600 and 4601 were diluted in PBS to make 50 μM and 100 μM stocks, respectively. 10 μl of prepared compound stocks were added to the cells, and the cells were placed into 37° C., 5% CO2 incubator. Following a 30 minute incubation, the cells were removed from incubator, cooled at room temperature for 10 minutes, and 50 μl of Oplophorus luciferase detection reagent (Promega Corporation) added directly to the wells. The samples were mixed, incubated at room temperature for 20 minutes, and luminescence measured.

[5] = 10 μM NADH, 60 min, substrate 920 μM

Question: How did the FLUs ([1]; 0 μM NADH, 60 min) turn out when CC1=C(C)C(=O)C(C(C)(C)CC(=O)N(C)CCN(C)C(=O)Oc2ccc3c(c2)Oc2cc(OC(=O)N(C)CCN(C)C(=O)CC(C)(C)C4=C(C)C(=O)C(C)=C(C)C4=O)ccc2C32OC(=O)c3ccccc32)=C(C)C1=O [PBI 4441, Bis-quinone trimethyllock diamine fluorescein] was run?
Answer: The FLUs was 314 FLUs.

Question: What about the FLUs [1, 5] of the same compound?
Answer: The FLUs was 2570 FLUs.

Question: And the “Fluorescence time course, Clostridium” value ([1]; 2 min)?
Answer: The value was 354 FLUs.

Question: And the “Fluorescence time course, Clostridium” value ([1]; 4 min)?
Answer: The value was 481 FLUs.

Question: And the “Fluorescence time course, Clostridium” value ([1]; 5 min)?
Answer: Its value is 576 FLUs.

Question: What about the “Fluorescence time course, Clostridium” value ([1]; 10 min) of the same compound?
Answer: Its value is 1152 FLUs.

Question: What about the “Fluorescence time course, Clostridium” value ([1]; 20 min) of the same compound?
Answer: The value was 1974 FLUs.

Question: And the “Fluorescence time course, Clostridium” value ([1]; 30 min)?
Answer: Its value is 2334 FLUs.

Question: What about the “Fluorescence time course, Clostridium” value ([1]; 40 min) of the same compound?
Answer: The value was 2515 FLUs.

Question: And the “Fluorescence time course, Clostridium” value ([1]; 50 min)?
Answer: The value was 2514 FLUs.

Question: What about the “Fluorescence time course, Clostridium” value ([1]; 60 min) of the same compound?
Answer: The value was 2570 FLUs.

Question: What about the “Fluorescence time course, Clostridium” value ([1]; 70 min) of the same compound?
Answer: Its value is 2584 FLUs.

Question: What about the “Fluorescence time course, Clostridium” value ([1]; 80 min) of the same compound?
Answer: Its value is 2561 FLUs.

Question: And the “Fluorescence time course, Clostridium” value ([1]; 90 min)?
Answer: The value was 2539 FLUs.

Question: And the “Fluorescence time course, Clostridium” value ([1]; 100 min)?
Answer: The value was 2555 FLUs.

Question: And the “Fluorescence time course, Clostridium” value ([1]; 110 min)?
Answer: Its value is 2515 FLUs.

Question: What about the “Fluorescence time course, Clostridium” value ([1]; 120 min) of the same compound?
Answer: The value was 2570 FLUs.

Question: What about the “reduction of substrate in live cells (confocal images)” value [2] of the same compound?
Answer: The value was “only reduced once inside cells”.

Question: What about the FLUs ([3]; 0 μM NADH, 60 min) of the same compound?
Answer: Its FLUs is 120 FLUs.

Question: And the FLUs [3, 5]?
Answer: The FLUs was 7387 FLUs.

Question: What about the “Fluorescence time course, Rat” value ([3]; 2 min) of the same compound?
Answer: Its value is 302 FLUs.

Question: What about the “Fluorescence time course, Rat” value ([3]; 4 min) of the same compound?
Answer: Its value is 608 FLUs.

Question: And the “Fluorescence time course, Rat” value ([3]; 5 min)?
Answer: Its value is 827 FLUs.

Question: What about the “Fluorescence time course, Rat” value ([3]; 10 min) of the same compound?
Answer: The value was 1961 FLUs.

Question: What about the “Fluorescence time course, Rat” value ([3]; 20 min) of the same compound?
Answer: Its value is 3454 FLUs.

Question: And the “Fluorescence time course, Rat” value ([3]; 30 min)?
Answer: Its value is 4460 FLUs.

Question: What about the “Fluorescence time course, Rat” value ([3]; 40 min) of the same compound?
Answer: Its value is 5442 FLUs.

Question: What about the “Fluorescence time course, Rat” value ([3]; 50 min) of the same compound?
Answer: The value was 6457 FLUs.

Question: And the “Fluorescence time course, Rat” value ([3]; 60 min)?
Answer: Its value is 7387 FLUs.

Question: What about the “Fluorescence time course, Rat” value ([3]; 70 min) of the same compound?
Answer: The value was 8891 FLUs.

Question: And the “Fluorescence time course, Rat” value ([3]; 80 min)?
Answer: Its value is 9545 FLUs.

Question: What about the “Fluorescence time course, Rat” value ([3]; 90 min) of the same compound?
Answer: Its value is 9915 FLUs.

Question: What about the “Fluorescence time course, Rat” value ([3]; 100 min) of the same compound?
Answer: Its value is 10496 FLUs.

Question: And the “Fluorescence time course, Rat” value ([3]; 110 min)?
Answer: The value was 10736 FLUs.

Question: And the “Fluorescence time course, Rat” value ([3]; 120 min)?
Answer: Its value is 11149 FLUs.

Question: Which “relationship of luminescence to cell number” value [4] does the source give for CC1=C(C)C(=O)C(C(C)(C)CC(=O)N(C)CCN(C)C(=O)Oc2c(Cc3ccco3)nc3c(Cc4ccccc4)nc(-c4ccccc4)cn23)=C(C)C1=O [PBI 4600] here?
Answer: The value was “linear correlation between cell number and luminescence”.

Question: How did the “relationship of luminescence to cell number” value [4] turn out when CC1=C(C)C(=O)C(C(C)(C)CC(=O)N(C)CCN(C)C(=O)Oc2c(Cc3ccccc3)nc3c(Cc4ccccc4)nc(-c4ccccc4)cn23)=C(C)C1=O [PBI 4601] was run?
Answer: The value was “linear correlation between cell number and luminescence”.
